System: clinical strains of Mycobacterium tuberculosis
Experiment: Reference phenotypic test of antibiotic sensitivity in solid medium
Assay type: cell-based
Conditions: six clinical strains

NNC(=O)c1ccncc1 [isoniazid]
sensitivity at critical concentration (isoniazid, 0.2 μg/ml): sensitive

[H]/N=C(/N)N[C@H]1[C@H](O)[C@@H](O)[C@H](O[C@@H]2O[C@@H](C)[C@](O)(C=O)[C@H]2O[C@@H]2O[C@@H](CO)[C@H](O)[C@@H](O)[C@@H]2NC)[C@@H](N/C(N)=N\[H])[C@@H]1O [streptomycin]
sensitivity at critical concentration (streptomycin, 5 μg/ml): sensitive

CC[C@@H](CO)NCCN[C@@H](CC)CO [ethambutol]
sensitivity at critical concentration (ethambutol, 5 μg/ml): sensitive

Reference: US8841087B2 (priority 2008, dated 2014)
